{
  "source": "patent US20130085105A1",
  "about": "“Transdermal Administration Of Peptides” (The Provost, Fellows and Scholars of the College of Holy …, priority 2010, published 2013)",
  "key": {"[1]": {"assay": "In vitro transdermal permeation, diffusion cell, pig epidermis", "assay_type": "in vitro ADME, domestic pigs", "procedure": "The viable epidermal layer was removed from the flanks of freshly sacrificed four month-old female domestic pigs. The flank area of each animal was carefully shaved and the upper 200 μm of skin (Meyer, W., et al., Curr. Prob. Dermatol., 7: 39-52, 1978; de Jalón, et al., J. Control. Rel., 75:191-197, 2001) was harvested using an electric dermatome (Robbins Instruments, Chatham, N.J., U.S.A.). Pigskin epidermal specimens were frozen at −18° C. between layers of PBS-soaked tissue paper enclosed in aluminum foil for up to two weeks prior to use in in vitro permeation studies.\nA custom made finite dosing diffusion cell (AGB Scientific, Dublin, Ireland, FIG. 1) based upon and modified from the Keshary-Chien type diffusion cell was used for in vitro permeation studies.\nThree to five diffusion cells were used in each permeation experiment and monitoring was performed over a 48 hour period. The cells were linked in series to a thermostatically controlled circulation bath set at 35° C. to mimic human skin surface temperature. Each cell was placed on a stir-plate set at a defined stirring rate of 1,000 rpm. The surface area for permeation provided by each cell was 3.14 cm^2.\nData collected from each permeation study included:\n1) the average maximum flux obtained in 48 hours (Jmax),\n2) the total absorption characterized as the total weight of peptide delivered transdermally into the receiver compartment over a 48 hour period,\n3) the lag time to detectable flux which was equivalent to the latest sampling time at which no peptide was detectable by HPLC analysis of the receiver solution, and\n4) an equivalent 48-hour steady state flux was determined by obtaining the slope of the best-fit line for a plot of cumulative flux per unit area versus time (described by McDaid, D. M. et al., Int. J. Pharm., 133:71-83, 1996).\nFresh hairless mouse skin samples or fresh or freshly thawed pig skin samples were mounted onto the diffusion cell with the SC topmost and in contact with the donor system. A rubber or plastic ring was placed on top of the skin sample to secure it in position. The combination of the diffusion cell top, the skin and the rubber ring was securely fastened together by means of a threaded cap. A recorded volume of receiver solution was added to the receiver compartment and maintained at 35° C. The receiver solution was 60/40 (v/v) PBS/propylene glycol (pH 7.1). The propylene glycol fraction was used to increase the solubility of the somatostatin-fatty acid salts. Previous work reported by Morgan et al. (J. Pharm. Sci., 87:1213-1218, 1998) has shown that a 50/50 water/propylene glycol receptor solution had no detrimental effect on the barrier integrity of both hairless mouse and porcine skin.\nThe receiver solution was allowed to equilibrate at 35° C. for 30 minutes. The experiment was initiated by the application of 1 ml of donor solution containing approximately 5 mg free base peptide in DMSO to the skin surface followed by sealing of the donor compartment with Parafilm®. A narrow-bore hypodermic needle was used to withdraw 1 ml samples from the receiver compartment via the sampling port; at each sampling time, an equal volume of drug-free receiver solution was immediately added back to the receiver compartment. Samples were analyzed by HPLC.\nHPLC determination of peptide content in the receiver solution along with the known surface area of skin used (3.14 cm^2) allowed for calculation of transdermal flux (in units of μg/cm^2/hr) for each time point. Panels 1 and 2 of FIG. 2 show flux profiles obtained for the oleate salts of Compound A and Compound B in DMSO which far exceeded the flux profiles for the myristate, octanoate, decanoate, linoleate, nonanote, acetate and laurate salts of Compound A as well as the acetate salt of Compound B in DMSO. […]"}, "[2]": {"assay": "Calculation of required transdermal delivery rate in humans (Eqn. 10.5)", "conditions": "human; for required steady-state transdermal flux: skin area of 20 cm^2, Cpss 1 ng/ml (Compound A), 0.5 ng/ml (Compound B, using Compound A parameters)", "procedure": "(§1) The values obtained for the intermediate dose of 21 μg/Kg were used to determine the necessary input rate, i.e., steady state flux, required in humans to achieve therapeutic plasma levels as outlined by Lee et al. (Res. Comm. Mol. Path. Pharmacol., 85, 337-346, 1994) in their studies on melatonin. […] As described by Chatterjee et al. (Pharm. Res., 14:1058-1065, 1997), the following equation can be used to predict required delivery rates, assuming transdermal delivery can be treated as an intravenous infusion:\nwhere K0 is the required zero order delivery rate to achieve a therapeutic steady state plasma concentration (Cpss). […] Thus, for a skin area of 20 cm^2, the required steady-state transdermal flux would be 0.45 μg/cm^2/hr. Assuming a therapeutic plasma level of 0.5 ng/ml for Compound B and utilizing the relevant Compound A parameters, a required steady-state flux of 0.23 μg/cm^2/hr was calculated for a skin area of 20 cm^2."}, "[3]": {"assay": "Pharmacokinetics of Compound A after i.v. infusion to healthy human volunteers (Chassard et al.)", "assay_type": "in vivo", "procedure": "A number of basic equations exist for the prediction of drug plasma levels in humans obtained by transdermal delivery. In order to make use of these equations, basic human pharmacokinetic parameters are required for the drug in question. Chassard et al. (J. Endocrinol. Invest. 20(Supp. to no. 7):30-32, 1997) reported on the pharmacokinetics of Compound A after i.v. infusion of 7, 21 and 42 μg/Kg to healthy human volunteers (n=12) obtaining values as shown in Table 20.\nas §1, with “infusion: […]” for “infusion:”"}, "[4]": {"conditions": "human, cited from earlier work"}, "[5]": {"conditions": "mice, topical with 1% N-decylmethylsulfoxide, within 2 hours of administration; cited from earlier work"}, "[6]": {"conditions": "rabbits, iontophoresis; cited from earlier work"}, "[7]": {"conditions": "cited from earlier work"}},
  "note": "Like-named read-outs stand apart in the source and are kept apart here.",
  "data": [
    {"smiles": "CC[C@@H]1NC(=O)[C@H](CCCCN)NC(=O)[C@@H](Cc2c[nH]c3ccccc23)NC(=O)[C@H](Cc2ccc(O)cc2)NC(=O)[C@@H](NC(=O)[C@@H](Cc2ccccc2)NC(=O)CN2CCN(CCO)CC2)CSSC[C@@H](C(=O)N[C@H](C(N)=O)[C@@H](C)O)NC1=O", "note": "[Compound B, [4-(2-hydroxyethyl)]-1-piperazinylacetyl-D-Phe-c(Cys-Tyr-D-Trp-Lys-Abu-Cys)-Thr-NH2]", "values": [
      {"measurement": "estimated daily systemic delivery across human skin", "setting": "[1]", "value": "approximately 2.665 mg"},
      {"measurement": "required steady-state transdermal flux", "setting": "[2]", "value": 0.23, "unit": "μg/cm^2/hr"}
    ]},
    {"smiles": "CC(C)[C@@H]1NC(=O)[C@H](CCCCN)NC(=O)[C@@H](Cc2c[nH]c3ccccc23)NC(=O)[C@H](Cc2ccc(O)cc2)NC(=O)[C@@H](NC(=O)[C@H](N)Cc2ccc3ccccc3c2)CSSC[C@@H](C(=O)N[C@H](C(N)=O)[C@@H](C)O)NC1=O", "note": "[Compound A, D-2-Nal-c(Cys-Tyr-D-Trp-Lys-Val-Cys)-Thr-NH2]", "values": [
      {"measurement": "CL for a 70 Kg human", "setting": "[3]; 292 (ml/hr)/Kg×70 Kg", "value": "20,440 cm^3/hr"},
      {"measurement": "Vd", "setting": "[3]; human, plasma, intravenous, 21 ug/kg, from Vss at 21 μg/Kg multiplied by 70 Kg", "value": 13, "unit": "L"},
      {"measurement": "AUC", "setting": "[4]; i.v. infusion 7 μg/Kg", "value": "21.2 ± 4.1 (ng/ml)/hr"},
      {"measurement": "CL", "setting": "[4]; i.v. infusion 7 μg/Kg", "value": "341 ± 62 (ml/hr)/Kg"},
      {"measurement": "Kel", "setting": "[4]; i.v. infusion 7 μg/Kg", "value": "0.87 ± 0.11", "unit": "h⁻¹"},
      {"measurement": "MRTinfusion", "setting": "[4]; i.v. infusion 7 μg/Kg", "value": "42 ± 6", "unit": "min"},
      {"measurement": "Vss", "setting": "[4]; i.v. infusion 7 μg/Kg", "value": "0.194 ± 0.041", "unit": "L/kg"},
      {"measurement": "t1/2", "setting": "[4]; i.v. infusion 7 μg/Kg", "value": "48 ± 6", "unit": "min"},
      {"measurement": "AUC", "setting": "[4]; i.v. infusion 21 μg/Kg", "value": "74.3 ± 13.7 (ng/ml)/hr"},
      {"measurement": "CL", "setting": "[4]; i.v. infusion 21 μg/Kg", "value": "292 ± 58 (ml/hr)/Kg"},
      {"measurement": "Kel", "setting": "[4]; i.v. infusion 21 μg/Kg", "value": "0.69 ± 0.07", "unit": "h⁻¹"},
      {"measurement": "MRTinfusion", "setting": "[4]; i.v. infusion 21 μg/Kg", "value": "48 ± 6", "unit": "min"},
      {"measurement": "Vss", "setting": "[4]; i.v. infusion 21 μg/Kg", "value": "0.186 ± 0.044", "unit": "L/kg"},
      {"measurement": "t1/2", "setting": "[4]; i.v. infusion 21 μg/Kg", "value": "60 ± 6", "unit": "min"},
      {"measurement": "AUC", "setting": "[4]; i.v. infusion 42 μg/Kg", "value": "180.6 ± 46.6 (ng/ml)/hr"},
      {"measurement": "CL", "setting": "[4]; i.v. infusion 42 μg/Kg", "value": "249 ± 72 (ml/hr)/Kg"},
      {"measurement": "Kel", "setting": "[4]; i.v. infusion 42 μg/Kg", "value": "0.43 ± 0.09", "unit": "h⁻¹"},
      {"measurement": "MRTinfusion", "setting": "[4]; i.v. infusion 42 μg/Kg", "value": "54 ± 12", "unit": "min"},
      {"measurement": "Vss", "setting": "[4]; i.v. infusion 42 μg/Kg", "value": "0.187 ± 0.049", "unit": "L/kg"},
      {"measurement": "t1/2", "setting": "[4]; i.v. infusion 42 μg/Kg", "value": "96 ± 18", "unit": "min"},
      {"measurement": "estimated daily systemic delivery across human skin", "setting": "[1]; from Jss across pig epidermis, 55/40/5 ethanol/water/cineole, patch area of 20 cm^2", "value": "approximately 0.675 mg"},
      {"measurement": "required input rate (K0)", "setting": "[2]; required Cpss=1 ng/ml, Eqn. 10.5", "value": 8.98, "unit": "µg/h"},
      {"measurement": "required steady-state transdermal flux", "setting": "[2]", "value": 0.45, "unit": "μg/cm^2/hr"}
    ]},
    {"smiles": "C[C@@H](O)[C@@H]1NC(=O)[C@H](CCCCN)NC(=O)[C@@H](Cc2c[nH]c3ccccc23)NC(=O)[C@H](Cc2ccccc2)NC(=O)[C@@H](NC(=O)[C@H](N)Cc2ccccc2)CSSC[C@@H](C(=O)N[C@H](CO)[C@@H](C)O)NC1=O", "note": "[octreotide, D-Phe-c(Cys-Phe-D-Trp-Lys-Thr-Cys)-Thr-ol]", "values": [
      {"measurement": "plasma levels of peptide", "setting": "[5]", "value": "> 8", "unit": "ng/mL"},
      {"measurement": "apparent bioavailability", "setting": "[6]", "value": "approximately 8%"},
      {"measurement": "therapeutic plasma concentration throughout the iontophoretic episode", "setting": "[6]", "value": "greater than 1 ng/ml"}
    ]},
    {"smiles": "CC(C(=O)O)c1ccc(N=[N+]=[N-])cc1", "note": "(stereo not drawn) [azidoprofen]", "values": [
      {"measurement": "flux through hairless mouse skin", "setting": "[7]; donor concentration 6 μmol cm-3", "value": 0.236, "unit": "μmol cm-2 hr-1"},
      {"measurement": "flux through hairless mouse skin", "setting": "[7]; donor concentration 15 μmol cm-3", "value": 0.649, "unit": "μmol cm-2 hr-1"}
    ]}
  ]
}
